Data: ChEMBL document CHEMBL1201862, “PubChem BioAssay data set” (2004)
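Growth conditions: 96-well plates. Treatment: test compound, 48 hours, 5 concentrations. Analysis: linear interpolation between bracketing concentrations; unreached endpoints set to highest concentration. Abbreviation: GI50, concentration required for 50% inhibition of growth.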 The source made the active and inactive calls. No stated cut-off is given here; in the data, active = GI50 up to about 1.1 µM and inactive = higher.

Columns and labels:
Assay in all cases: NCI tumour cell line growth inhibition, 48 h
786-0 = tested on: 786-0
A498 = tested on: A498
A549 = tested on: A549
ACHN = tested on: ACHN
BT-549 = tested on: BT-549
CAKI-1 = tested on: CAKI-1
CCRF-CEM = tested on: CCRF-CEM
COLO 205 = tested on: COLO 205
EKVX = tested on: EKVX
HCC 2998 = tested on: HCC 2998
HCT-116 = tested on: HCT-116
HCT-15 = tested on: HCT-15
HOP-62 = tested on: HOP-62
HOP-92 = tested on: HOP-92
HT-29 = tested on: HT-29
Hs-578T = tested on: Hs-578T
IGROV-1 = tested on: IGROV-1
K562 = tested on: K562
KM12 = tested on: KM12
LOX IMVI = tested on: LOX IMVI
M14 = tested on: M14
MCF7 = tested on: MCF7
MDA-MB-231 = tested on: MDA-MB-231
MDA-MB-435 = tested on: MDA-MB-435
MDA-N = tested on: MDA-N
MOLT-4 = tested on: MOLT-4
Malme-3M = tested on: Malme-3M
NCI-H226 = tested on: NCI-H226
NCI-H460 = tested on: NCI-H460
NCI-H522 = tested on: NCI-H522
NCI/ADR-RES = tested on: NCI/ADR-RES
OVCAR-4 = tested on: OVCAR-4
OVCAR-5 = tested on: OVCAR-5
OVCAR-8 = tested on: OVCAR-8
PC-3 = tested on: PC-3
RXF 393 = tested on: RXF 393
SF-268 = tested on: SF-268
SF-295 = tested on: SF-295
SF-539 = tested on: SF-539
SK-MEL-28 = tested on: SK-MEL-28
SK-MEL-2 = tested on: SK-MEL-2
SK-MEL-5 = tested on: SK-MEL-5
SK-OV-3 = tested on: SK-OV-3
SN12C = tested on: SN12C
SNB-19 = tested on: SNB-19
SNB-75 = tested on: SNB-75
SW-620 = tested on: SW-620
TK-10 = tested on: TK-10
U-251 = tested on: U-251
UACC-257 = tested on: UACC-257
UACC-62 = tested on: UACC-62
HL-60 = tested on: HL-60
NCI-H23 = tested on: NCI-H23
OVCAR-3 = tested on: OVCAR-3
SR = tested on: SR
UO-31 = tested on: UO-31

Measured: GI50

COc1cccc(NC(=O)C(C#N)=C(SC)SC)c1
inactive: 786-0 > 100 µM | A498 > 100 µM | A549 > 100 µM | ACHN > 100 µM | BT-549 > 100 µM | CAKI-1 95.1 µM | CCRF-CEM 34 µM | COLO 205 > 100 µM | EKVX > 100 µM | HCC 2998 > 100 µM | HCT-116 > 100 µM | HOP-62 > 100 µM | HOP-92 46 µM | HT-29 > 100 µM | Hs-578T > 100 µM | IGROV-1 > 100 µM | K562 > 100 µM | KM12 > 100 µM | LOX IMVI > 100 µM | M14 > 100 µM | MCF7 72.9 µM | MDA-MB-231 > 100 µM | MDA-MB-435 > 100 µM | MDA-N > 100 µM | MOLT-4 62.2 µM | Malme-3M > 100 µM | NCI-H226 > 100 µM | NCI-H460 > 100 µM | NCI-H522 30.4 µM | NCI/ADR-RES > 100 µM | OVCAR-4 > 100 µM | OVCAR-5 > 100 µM | OVCAR-8 > 100 µM | PC-3 > 100 µM | RXF 393 > 100 µM | SF-268 > 100 µM | SF-295 > 100 µM | SF-539 > 100 µM | SK-MEL-28 > 100 µM | SK-MEL-2 > 100 µM | SK-MEL-5 41.8 µM | SK-OV-3 > 100 µM | SN12C > 100 µM | SNB-19 57 µM | SNB-75 > 100 µM | SW-620 > 100 µM | TK-10 > 100 µM | U-251 > 100 µM | UACC-257 > 100 µM | UACC-62 > 100 µM
> 100 µM: HCT-15

C=C1CC[C@]2(C)[C@H](CC[C@@]34C[C@@H](CC[C@H]32)[C@@H](C(=O)O)C4)C1(C)C
inactive: 786-0 7.83 µM | A498 3.69 µM | A549 5.22 µM | ACHN 8.63 µM | BT-549 > 12.5 µM | CAKI-1 > 12.5 µM | CCRF-CEM 7.05 µM | COLO 205 4.54 µM | EKVX > 12.5 µM | HCT-116 > 12.5 µM | HL-60 4.7 µM | HOP-62 5.36 µM | HOP-92 5.5 µM | HT-29 5.35 µM | Hs-578T 6.68 µM | IGROV-1 > 12.5 µM | K562 4.21 µM | KM12 > 12.5 µM | LOX IMVI > 12.5 µM | M14 > 12.5 µM | MCF7 > 12.5 µM | MDA-MB-231 > 12.5 µM | MDA-MB-435 > 12.5 µM | MDA-N > 12.5 µM | MOLT-4 6.17 µM | Malme-3M > 12.5 µM | NCI-H226 > 12.5 µM | NCI-H23 > 12.5 µM | NCI-H460 5.19 µM | NCI/ADR-RES > 12.5 µM | OVCAR-3 > 12.5 µM | OVCAR-4 > 12.5 µM | OVCAR-5 > 12.5 µM | OVCAR-8 > 12.5 µM | PC-3 10.3 µM | RXF 393 > 12.5 µM | SF-295 8.24 µM | SF-539 6.19 µM | SK-MEL-28 > 12.5 µM | SK-MEL-2 > 12.5 µM | SK-MEL-5 8.24 µM | SK-OV-3 > 12.5 µM | SN12C > 12.5 µM | SNB-19 > 12.5 µM | SR 6.37 µM | SW-620 > 12.5 µM | TK-10 > 12.5 µM | U-251 > 12.5 µM | UACC-257 > 12.5 µM | UACC-62 > 12.5 µM | UO-31 7.28 µM
> 12.5 µM: HCT-15
